Read-outs that look alike come from different tables or passages of the source.

For data set [1] the following is noted: cited from earlier work.
A short description of another data set: physchem. The settings on record: pH 7.4.
For data set [2] the following is noted: pH 7.4.
Setting [3] is: shake flask, pH 7.4, average literature value.

`CCCSc1ccc2nc(NC(=O)OC)[nH]c2c1` [Albendazole]: in data set [1] (setting [3]), the “Literature LogD” value is recorded as 3.29. This compound also registered a logD at 90 min in “physchem” of 3.41.
For `C=CCc1ccccc1OCC(O)CNC(C)C` (centres unmarked) [Alprenolol], the “Literature LogD” value in data set [1] (setting [3]) was 0.88. The compound also came in with a logD at 90 min in “physchem” of 1.03.
As for `CN(C)CCC=C1c2ccccc2CCc2ccccc21` [Amitriptyline], the “Literature LogD” value in data set [1] (setting [3]) was 2.79. For the same compound, the logD at 90 min in “physchem” worked out at 2.87.
In “physchem”, `NC(=O)N1c2ccccc2C=Cc2ccccc21` [Carbamazepine] showed a logD at 90 min of 1.59.
`CN(C)CCCN1c2ccccc2Sc2ccc(Cl)cc21` [Chlorpromazine]: the “Literature LogD” value in data set [1] (setting [3]) is 3.16. This compound had a logD at 90 min in the data set “physchem” of 3.26.
`NS(=O)(=O)c1cc(C2(O)NC(=O)c3ccccc32)ccc1Cl` (centres unmarked) [Chlorthalidone] came in with a logD at 90 min in “physchem” of 0.9.
`CN(C)CCCN1c2ccccc2CCc2ccc(Cl)cc21` [Clomipramine]: the “Literature LogD” value in data set [1] (setting [3]) is given as 3.28. For the same compound, the pH-dependent lipophilicity (logD) at 90 min in “physchem” turned out to be 3.46.
On to `C[C@@H]1C[C@H]2[C@@H]3CCC4=CC(=O)C=C[C@]4(C)[C@@]3(F)[C@@H](O)C[C@]2(C)[C@@]1(O)C(=O)CO` [Dexamethason], for which the “Literature LogD” value in data set [1] (pH 7.4) is reported as 1.82. Further, the “CAMDIS FBP LogD” value in data set [2] turned out to be 1.82.
`O=C(O)Cc1ccccc1Nc1c(Cl)cccc1Cl` [Diclofenac]: in data set [1] (setting [3]), the “Literature LogD” value is 1.14. For the same compound, the logD at 90 min in the data set “physchem” came out at 1.12.
As for `CC(C(=O)O)c1ccc(-c2ccccc2)c(F)c1` (centres unmarked) [Flurbiprofen], the “Literature LogD” value in data set [1] (setting [3]) is on record as 0.91. For the same compound, the logD at 90 min in the data set “physchem” worked out at 0.8.
On to `COc1ccc(Cl)cc1C(=O)NCCc1ccc(S(=O)(=O)NC(=O)NC2CCCCC2)cc1` [Glyburide], for which the “Literature LogD” value in data set [1] (setting [3]) is reported as 2.19.
In the case of `COC1=CC(=O)C[C@@H](C)[C@]12Oc1c(Cl)c(OC)cc(OC)c1C2=O` [Griseofulvin], the logD at 90 min in the data set “physchem” is 2.19.
On to `CC(C)Cc1ccc(C(C)C(=O)O)cc1` (centres unmarked) [Ibuprofen], for which, in data set [1] (setting [3]), the “Literature LogD” value is given as 1.27. In “physchem”, this compound showed a logD at 90 min of 0.97.
Consider `COc1ccc2c(c1)c(CC(=O)O)c(C)n2C(=O)c1ccc(Cl)cc1` [Indomethacin], for which the “Literature LogD” value in data set [1] (setting [3]) was 0.76. For the same compound, the logD at 90 min in “physchem” was determined as 0.87.
Regarding `CC(C(=O)O)c1cccc(C(=O)c2ccccc2)c1` (centres unmarked) [Ketoprofen], in data set [1] (setting [3]), the “Literature LogD” value was −0.23.
For the compound `CC(CCc1ccccc1)NCC(O)c1ccc(O)c(C(N)=O)c1` (centres unmarked) [Labetalol], in data set [1] (setting [3]), the “Literature LogD” value is listed as 1.09. In “physchem”, the logD at 90 min is 1.08.
`CCCC(C)(COC(N)=O)COC(N)=O` [Meprobamate]: the “Literature LogD” value in data set [1] (pH 7.4) is 0.7. This compound also yielded a logD in “physchem” of 0.76.
`CN1CCCCC1CCN1c2ccccc2Sc2ccc([S+](C)[O-])cc21` (centres unmarked) [Mesoridazine]: in data set [1] (setting [3]), the “Literature LogD” value is listed as 1.81. In the data set “physchem”, this compound had a log distribution coefficient (logD) at 90 min of 1.74.
As to `COCCc1ccc(OCC(O)CNC(C)C)cc1` (centres unmarked) [Metoprolol], the “Literature LogD” value in data set [1] (setting [3]) is reported as −0.17. The compound also registered a logD at 90 min in the data set “physchem” of 0.06.
On to `Cc1ncc([N+](=O)[O-])n1CCO` [Metronidazole], for which the “Literature LogD” value in data set [1] (setting [3]) was −0.07. Also, the logD at 90 min in “physchem” is -0.22.
As to `COCCOC(=O)C1=C(C)NC(C)=C(C(=O)OC(C)C)C1c1cccc([N+](=O)[O-])c1` (centres unmarked) [Nimodipine], the “Literature LogD” value in data set [1] (setting [3]) is reported as 4.18. In addition, in “physchem”, the logD at 90 min turned out to be 3.95.
In the case of `CC(=O)Nc1ccc(O)cc1` [Paracetamol], in data set [1] (setting [3]), the “Literature LogD” value is given as 0.3.
For `O=C1NC(=O)C(c2ccccc2)(c2ccccc2)N1` [Phenytoin], the “Literature LogD” value in data set [1] (setting [3]) was 2.23. For the same compound, the logD at 90 min in “physchem” worked out at 2.32.
Take `C[C@]12C=CC(=O)C=C1CC[C@@H]1[C@@H]2[C@@H](O)C[C@@]2(C)[C@H]1CC[C@]2(O)C(=O)CO` [Prednisolone]: the “Literature LogD” value in data set [1] (setting [3]) is on record as 1.45. In “physchem”, this compound yielded a logD at 90 min of 1.53.
Consider `CCC1(c2ccccc2)C(=O)NCNC1=O` [Primidone], for which the “Literature LogD” value in data set [1] (setting [3]) is reported as 0.91. For the same compound, in “physchem”, the logD at 90 min stood at 0.74.
For `CC(=O)[C@H]1CC[C@H]2[C@@H]3CCC4=CC(=O)CC[C@]4(C)[C@H]3CC[C@]12C` [Progesterone], the “Literature LogD” value in data set [1] (pH 7.4) is 3.76.
Turning to `C[C@]12CC[C@H]3[C@@H](CCC4=CC(=O)CC[C@@]43C)[C@@H]1CC[C@@H]2O` [Testosterone], the “Literature LogD” value in data set [1] (pH 7.4) is given as 3.23.
For the compound `Cn1c(=O)c2[nH]cnc2n(C)c1=O` [Theophyline], the “Literature LogD” value in data set [1] (pH 7.4) was −0.02. In data set [2], the “CAMDIS FBP LogD” value is on record as −0.16.
With `CC(=O)CC(c1ccccc1)c1c(O)c2ccccc2oc1=O` (centres unmarked) [Warfarin], the “Literature LogD” value in data set [1] (pH 7.4) is on record as 1.12. In the data set “physchem”, the logD is 0.87.

In general, logD refers to lipophilicity at a set pH, counting ionised and neutral species. A low value points to a more hydrophilic compound.
